In brackets after ≈: the same amount, converted by molar mass. Some results are limits rather than exact numbers.

Holding throughout (format): functional
Experiment [1] relates to Staphylococcus aureus. In words: Antimicrobial activity against Staphylococcus aureus ATCC12715 assessed as growth inhibition after 24 hrs by microdilution assay.
The subject of experiment [2] is Staphylococcus epidermidis. The experiment is described as follows: Antimicrobial activity against Staphylococcus epidermis CCM628 assessed as growth inhibition after 24 hrs by microdilution assay.
Experiment [3] relates to Escherichia coli. The experiment is described as follows: Antimicrobial activity against Escherichia coli ATCC35218 assessed as growth inhibition after 24 hrs by microdilution assay.
The test system of experiment [4] is Candida albicans. The experiment is described as follows: Antimicrobial activity against Candida albicans SC5314 assessed as growth inhibition after 24 hrs by microdilution assay.
Experiment [5] concerns Bacillus subtilis. The experiment is described as follows: Antimicrobial activity against Bacillus subtilis ATCC9372 assessed as growth inhibition after 24 hrs by microdilution assay.

`C=C(NC(=O)C(=C)NC(=O)c1csc(C2=N[C@@H]3c4csc(n4)[C@H]4NC(=O)c5csc(n5)[C@H]([C@@](C)(O)[C@H](C)O)NC(=O)[C@H]5CSC(=N5)/C(=C/C)NC(=O)[C@H]([C@@H](C)O)NC(=O)c5csc(n5)[C@]3(CC2)NC(=O)[C@H](C)NC(=O)C(=C)NC(=O)[C@H](C)NC(=O)[C@H]([C@@H](C)CC)N[C@@H]2C=Cc3c([C@H](C)O)cc(nc3[C@H]2O)C(=O)O[C@@H]4C)n1)C(N)=O`: the minimum inhibitory concentration (MIC) in experiment [1] is 0.06 µg/mL (≈ 0.036 µM); in experiment [2] it was less than 0.01 µg/mL; in experiment [3], greater than 64 µg/mL; in experiment [4] it was greater than 64 µg/mL; in experiment [5], 0.06 µg/mL (≈ 0.036 µM).
Take `C=C(NC(=O)C(=C)NC(=O)c1csc([C@H]2CC[C@]34NC(=O)C(=C)NC(=O)C(=C)NC(=O)C(=C)NC(=O)[C@H](C)N[C@@H]5C=Cc6c([C@H](C)O)cc(nc6[C@H]5O)C(=O)O[C@H](C)[C@H](NC(=S)c5csc(n5)[C@H]([C@@](C)(O)[C@H](C)O)NC(=O)[C@H]5CSC(=N5)/C(=C/C)NC(=O)[C@H]([C@@H](C)O)NC(=O)c5csc3n5)c3nc(cs3)[C@H]4N2)n1)C(=O)O`: the MIC is 0.5 µg/mL (≈ 0.305 µM) in experiment [1]; 0.25 µg/mL (≈ 0.153 µM) in experiment [2]; greater than 64 µg/mL in experiment [3]; greater than 64 µg/mL in experiment [4]; 0.25 µg/mL (≈ 0.153 µM) in experiment [5].
In the case of `C=C(NC(=O)C(=C)NC(=O)c1csc([C@H]2CC[C@]34NC(=O)C(=C)NC(=O)C(=C)NC(=O)C(=C)NC(=O)[C@H](C)N[C@@H]5C=Cc6c([C@H](C)O)cc(nc6[C@H]5O)C(=O)O[C@H](C)[C@H](NC(=O)c5csc(n5)[C@H]([C@@](C)(O)[C@H](C)O)NC(=O)[C@H]5CSC(=N5)/C(=C/C)NC(=O)[C@H]([C@@H](C)O)NC(=O)c5csc3n5)c3nc(cs3)[C@H]4N2)n1)C(=O)O`, the minimum inhibitory concentration (MIC) in experiment [1] was 8 µg/mL (≈ 4.93 µM); in experiment [2] it was 2 µg/mL (≈ 1.23 µM); in experiment [3] it was greater than 64 µg/mL; in experiment [4], greater than 64 µg/mL; in experiment [5], 8 µg/mL (≈ 4.93 µM).
With `C=C1NC(=O)C(=C)NC(=O)[C@H](C)N[C@@H]2C=Cc3c([C@H](C)O)cc(nc3[C@H]2O)C(=O)O[C@H](C)[C@@H]2NC(=S)c3csc(n3)[C@H]([C@@](C)(O)[C@H](C)O)NC(=O)[C@H]3CSC(=N3)/C(=C/C)NC(=O)[C@H]([C@@H](C)O)NC(=O)c3csc(n3)[C@]3(CC[C@H](c4nc(C(N)=O)cs4)N[C@@H]3c3csc2n3)NC(=O)C(=C)NC1=O`, the MIC in experiment [1] was 1 µg/mL (≈ 0.667 µM); in experiment [2], 0.5 µg/mL (≈ 0.334 µM); in experiment [3], greater than 64 µg/mL; in experiment [4], greater than 64 µg/mL; in experiment [5], 1 µg/mL (≈ 0.667 µM).
In the case of `C=C(NC(=O)c1csc([C@H]2CC[C@]34NC(=O)C(=C)NC(=O)C(=C)NC(=O)C(=C)NC(=O)[C@H](C)N[C@@H]5C=Cc6c([C@H](C)O)cc(nc6[C@H]5O)C(=O)O[C@H](C)[C@H](NC(=S)c5csc(n5)[C@H]([C@@](C)(O)[C@H](C)O)NC(=O)[C@H]5CSC(=N5)/C(=C/C)NC(=O)[C@H]([C@@H](C)O)NC(=O)c5csc3n5)c3nc(cs3)[C@H]4N2)n1)C(N)=O`, the minimum inhibitory concentration (MIC) is 2 µg/mL (≈ 1.28 µM) in experiment [1]; 0.5 µg/mL (≈ 0.319 µM) in experiment [2]; greater than 64 µg/mL in experiment [3]; greater than 64 µg/mL in experiment [4]; 1 µg/mL (≈ 0.638 µM) in experiment [5].
As to `C[C@@H]1[C@H](O)[C@@H](C)/C=C/C=C/C=C/C=C/C=C/C=C/C=C/[C@H](O[C@@H]2O[C@H](C)[C@@H](O)[C@H](N)[C@@H]2O)C[C@@H]2O[C@](O)(C[C@@H](O)C[C@@H](O)[C@H](O)CC[C@@H](O)C[C@@H](O)CC(=O)O[C@H]1C)C[C@H](O)[C@H]2C(=O)O` [AMPHOTERICIN B], the minimum inhibitory concentration (MIC) was greater than 64 µg/mL in experiment [1]; greater than 64 µg/mL in experiment [2]; greater than 64 µg/mL in experiment [3]; 0.25 µg/mL (≈ 0.271 µM) in experiment [4]; greater than 64 µg/mL in experiment [5].
For `O=C(O)c1cn(C2CC2)c2cc(N3CCNCC3)c(F)cc2c1=O` [CIPROFLOXACIN], the MIC in experiment [1] is 0.06 µg/mL (≈ 0.181 µM); in experiment [2], 0.06 µg/mL (≈ 0.181 µM); in experiment [3] it was less than 0.01 µg/mL; in experiment [4], greater than 64 µg/mL; in experiment [5], 0.06 µg/mL (≈ 0.181 µM).

(Values after ChEMBL document CHEMBL4842307, “Targeted Isolation of Saalfelduracin B-D from Amycolatopsis saalfeldensis Using LC-MS/MS-Based Molecular Networking” (2021).)
